Results on 16 compounds are retold here after patent US20060135422A1, “Use of angiotensin receptor blockers (ARBs) to treat diseases associated with excess ACE” (priority 2003, published 2006).

The target of data set [1] is tACE (Homo sapiens, UniProt P12821). Conditions: cited from earlier work.
For data set [2] the following is noted: cited from earlier work.
Data set [3] deals with T1, ACE (Homo sapiens, UniProt P12821). Particulars: binding affinity, from [27]; cited from earlier work.
Data set [4] concerns the target T1, ACE. Particulars: cited from earlier work.
Data set [5] relates to West Nile virus encephalitis. Nature of the data set: case series: West Nile virus encephalitis treated with angiotensin II receptor blockade. Format: in vivo, human. Conditions: for clinical outcome: patient 8, person with chronic lymphocytic leukemia, intravenous enalapril then losartan 50 mg daily. Here is the method:
Table 2. […] A person with past history of tremors was admitted with fever, stiff neck, severe confusion, and gross tremors to a hospital in Omaha, Nebr. one night. Their serum was positive for IgM reactive to West Nile virus. They were begun on olmesartan 20 mg daily. […] They were discharged home on olmesartan 20 mg daily. • 2. A person with hypertension treated with a beta-blocker/thiazide combination drug, was admitted to a hospital in Omaha, Nebr. with right leg paralysis and paresthesias and weakness in their left leg. Their serum was positive for IgM reactive to West Nile virus. They were begun on losartan 50 mg daily. […] A person with a history of seizures was admitted one night to a hospital in Omaha, Nebr. with a fever and a grand mal seizure. They had been taking olmesartan 20 mg daily for mild hypertension. Their serum was positive for IgM reactive to West Nile virus. […] Their usual dose of olmesartan 20 mg daily was resumed thereafter. […] A person was admitted with fever, stiff neck, and severe confusion to a hospital in Omaha, Nebr. Their serum was positive for IgM antibodies reactive to West Nile virus. They were begun on losartan 50 mg daily. […] A person was admitted with fever, stiff neck, and severe confusion to a hospital in Omaha, Nebr. Their serum was positive for IgM antibodies reactive to West Nile virus. They were begun on losartan 50 mg daily. […] A person was admitted with fever, stiff neck, and severe confusion to a hospital in Pueblo, CO. Their serum was positive for IgM antibodies reactive to West Nile virus. They were begun on losartan 50 mg daily. […] A person with chronic lymphocytic leukemia was admitted with fever and obtundation to a hospital in Pueblo, CO. Their serum was positive by EIA for West Nile virus antibodies. […] Head CT and MRI scans were negative.

Data set [6] concerns the target T2, serum ACE (Homo sapiens, UniProt P12821).
T2 construct: host or cells: serum
Particulars: cited from earlier work.

Data set [7] relates to unresectable pancreatic cancer. Nature of the data set: case report: unresectable pancreatic cancer, quinapril added. Particulars: person, 5-FU and Naitrexone since February 2002, quinapril (60 mg) since November 2002; median survival of similar patients less than 4 months. Format: in vivo, human.
Data set [8] deals with chronic renal failure. Conditions: clinical comparison, from [20]; cited from earlier work.
Data set [9] concerns psoriasis. Format: in vivo, human. Particulars: one person with type II diabetes, quinapril 200 mg/day (2 mg/kg/day); could stop daily methotrexate 75 mg.
For data set [10], the system named is pulmonary hypertension. Particulars: clinical comparison, from [20,22]; cited from earlier work.
Data set [11] is classed as in vivo, human. Conditions: 40 mg po qhs; reduced from 98 mm Hg. Here is the method:
Because many patients with an autoimmune disease such as alopecia greata, psoriasis, rheumatoid arthritis, multiple sclerosis, etc. are normotensive or even relatively hypotensive, an ACE inhibitor may not be the best choice for them. They might not be able to tolerate a sufficiently high dose of an ACE inhibitor, certainly any dose approaching 2 mg/kg/day. Instead, an AT1 receptor blocker appears to be effective at doses which cause minimal blood pressure (BP) reduction. […]

For data set [12], the system named is alopecia areata. Nature of the data set: case reports: alopecia areata treated with an ARB. Format: in vivo, human.
[13] abbreviates: pH 7.4, active moiety, calculated from [23].
Setting [14] is: pH 7.4, active moiety, calculated from [24].
[15] abbreviates: patient 2, losartan 50 mg daily.

Molecules are shown by their SMILES. Entries after “also recorded” stand apart in the source; their conditions may differ. Read-outs that look alike come from different tables or passages of the source.

T1 sequence (P12821 30-1306): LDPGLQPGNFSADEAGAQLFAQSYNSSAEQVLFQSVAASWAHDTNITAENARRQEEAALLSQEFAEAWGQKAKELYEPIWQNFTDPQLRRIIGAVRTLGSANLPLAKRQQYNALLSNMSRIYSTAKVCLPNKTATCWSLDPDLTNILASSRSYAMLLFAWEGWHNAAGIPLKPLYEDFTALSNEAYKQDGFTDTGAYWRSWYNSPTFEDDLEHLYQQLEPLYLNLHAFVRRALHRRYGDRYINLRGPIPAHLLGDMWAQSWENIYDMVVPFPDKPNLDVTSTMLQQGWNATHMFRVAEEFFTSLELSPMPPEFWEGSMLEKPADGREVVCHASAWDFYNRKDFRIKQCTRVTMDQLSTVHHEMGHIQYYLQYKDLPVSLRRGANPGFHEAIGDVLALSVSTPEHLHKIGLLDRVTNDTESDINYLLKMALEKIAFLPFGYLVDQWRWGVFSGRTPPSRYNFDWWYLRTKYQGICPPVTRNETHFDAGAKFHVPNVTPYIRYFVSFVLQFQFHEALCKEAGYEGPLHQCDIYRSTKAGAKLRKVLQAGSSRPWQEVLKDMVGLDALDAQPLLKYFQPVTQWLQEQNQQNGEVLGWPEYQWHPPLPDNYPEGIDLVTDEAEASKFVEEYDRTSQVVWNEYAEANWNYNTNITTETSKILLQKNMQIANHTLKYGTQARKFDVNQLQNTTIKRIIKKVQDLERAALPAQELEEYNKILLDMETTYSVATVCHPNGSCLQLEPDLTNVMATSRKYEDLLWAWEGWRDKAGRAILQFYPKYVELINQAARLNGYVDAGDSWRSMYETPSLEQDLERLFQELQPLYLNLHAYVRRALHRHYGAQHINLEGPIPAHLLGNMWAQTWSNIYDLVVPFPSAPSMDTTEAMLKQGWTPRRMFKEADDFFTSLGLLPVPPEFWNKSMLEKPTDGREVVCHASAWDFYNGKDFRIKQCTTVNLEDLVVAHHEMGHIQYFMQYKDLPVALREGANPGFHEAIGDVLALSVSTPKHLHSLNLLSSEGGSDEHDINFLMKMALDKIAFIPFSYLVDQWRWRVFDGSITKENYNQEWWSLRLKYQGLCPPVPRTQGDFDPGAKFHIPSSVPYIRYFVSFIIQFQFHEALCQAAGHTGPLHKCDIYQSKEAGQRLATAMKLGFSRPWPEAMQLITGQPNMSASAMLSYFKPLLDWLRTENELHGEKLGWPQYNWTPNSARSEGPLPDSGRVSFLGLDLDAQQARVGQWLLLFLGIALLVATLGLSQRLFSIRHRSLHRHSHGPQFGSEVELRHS
T2 sequence (P12821 30-1232): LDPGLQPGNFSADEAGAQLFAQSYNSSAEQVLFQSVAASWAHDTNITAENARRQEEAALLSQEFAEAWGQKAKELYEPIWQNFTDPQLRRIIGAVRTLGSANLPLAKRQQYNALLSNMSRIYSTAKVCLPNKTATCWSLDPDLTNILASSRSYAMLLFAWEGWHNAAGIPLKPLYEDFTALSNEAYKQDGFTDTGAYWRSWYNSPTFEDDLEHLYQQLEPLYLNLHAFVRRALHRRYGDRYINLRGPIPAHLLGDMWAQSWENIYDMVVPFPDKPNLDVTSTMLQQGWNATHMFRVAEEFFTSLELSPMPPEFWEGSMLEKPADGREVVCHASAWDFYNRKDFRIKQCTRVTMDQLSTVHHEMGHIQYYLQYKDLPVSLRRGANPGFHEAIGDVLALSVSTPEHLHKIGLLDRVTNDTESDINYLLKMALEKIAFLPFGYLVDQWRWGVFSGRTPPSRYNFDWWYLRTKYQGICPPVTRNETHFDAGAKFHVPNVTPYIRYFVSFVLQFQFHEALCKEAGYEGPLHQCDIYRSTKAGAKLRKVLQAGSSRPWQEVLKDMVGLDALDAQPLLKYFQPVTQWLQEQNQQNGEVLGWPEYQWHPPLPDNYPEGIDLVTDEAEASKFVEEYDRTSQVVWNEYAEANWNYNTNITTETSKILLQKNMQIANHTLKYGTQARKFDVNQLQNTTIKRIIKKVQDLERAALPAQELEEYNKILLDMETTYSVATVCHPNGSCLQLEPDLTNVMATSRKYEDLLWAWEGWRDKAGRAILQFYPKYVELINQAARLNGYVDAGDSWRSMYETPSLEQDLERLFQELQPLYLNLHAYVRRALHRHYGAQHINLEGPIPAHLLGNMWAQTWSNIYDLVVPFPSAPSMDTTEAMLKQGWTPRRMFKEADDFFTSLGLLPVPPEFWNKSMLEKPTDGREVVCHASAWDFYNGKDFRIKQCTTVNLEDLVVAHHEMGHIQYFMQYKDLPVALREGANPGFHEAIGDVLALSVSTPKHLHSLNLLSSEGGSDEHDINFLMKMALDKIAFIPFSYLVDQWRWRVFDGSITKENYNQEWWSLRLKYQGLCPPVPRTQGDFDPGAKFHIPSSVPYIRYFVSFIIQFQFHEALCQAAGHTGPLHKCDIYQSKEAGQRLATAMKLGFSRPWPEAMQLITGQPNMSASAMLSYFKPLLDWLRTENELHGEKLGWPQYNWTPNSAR
Chain of tACE (P12821 other isoform, or with tags, fused parts or gaps): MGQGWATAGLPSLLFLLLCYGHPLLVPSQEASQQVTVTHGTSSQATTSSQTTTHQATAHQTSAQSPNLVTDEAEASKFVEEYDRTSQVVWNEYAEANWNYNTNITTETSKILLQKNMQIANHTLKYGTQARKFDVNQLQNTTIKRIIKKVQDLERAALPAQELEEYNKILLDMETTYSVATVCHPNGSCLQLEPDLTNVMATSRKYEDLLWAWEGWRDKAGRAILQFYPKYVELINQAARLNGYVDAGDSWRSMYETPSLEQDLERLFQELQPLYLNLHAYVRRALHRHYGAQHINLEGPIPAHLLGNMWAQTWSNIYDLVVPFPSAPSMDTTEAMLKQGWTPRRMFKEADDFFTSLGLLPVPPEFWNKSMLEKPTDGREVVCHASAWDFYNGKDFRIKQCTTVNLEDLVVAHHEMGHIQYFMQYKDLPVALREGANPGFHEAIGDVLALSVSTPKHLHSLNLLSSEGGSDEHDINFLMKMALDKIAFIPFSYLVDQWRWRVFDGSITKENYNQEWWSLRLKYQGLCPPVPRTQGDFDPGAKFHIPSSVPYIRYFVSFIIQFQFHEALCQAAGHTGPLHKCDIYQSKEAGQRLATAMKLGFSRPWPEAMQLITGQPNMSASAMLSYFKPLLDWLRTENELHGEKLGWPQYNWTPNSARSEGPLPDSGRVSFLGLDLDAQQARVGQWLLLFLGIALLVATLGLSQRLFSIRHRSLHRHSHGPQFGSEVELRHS

Consider `O[C@H](CS)[C@H](O)CS` (racemic) [dithiothreitol], for which the “inhibition of tACE's activity” value in data set [1] is 78%.

As to `O=C(O)CN1C(=O)[C@@H](N[C@@H](CCc2ccccc2)C(=O)O)CCc2ccccc21` [Benazeprilat], in data set [2] (setting [13]), the “P(octanol:water)” value is 3.0.

On to `C[C@H](CS)C(=O)N1CCC[C@H]1C(=O)O` [Captopril], for which the “P(octanol:water)” value in [2] (setting [13]) was 0.01; in [2] (setting [14]), 0.004.

As for `NCCCC[C@H](OP(=O)(O)CCCCc1ccccc1)C(=O)N1CCC[C@H]1C(=O)O` [Ceronapril], the “P(octanol:water)” value in [2] (setting [14]) is on record as <0.001.

On to `O=C(O)[C@H](CCc1ccccc1)N[C@H]1CCCN2CCC[C@@H](C(=O)O)N2C1=O` [Cilazaprilat], for which, in data set [2] (setting [13]), the “P(octanol:water)” value was 1.7.

Consider `O=C(O)[C@@H]1C[C@@H](C2CCCCC2)CN1C(=O)CP(=O)(O)CCCCc1ccccc1` [Fosinoprilat], for which the “P(octanol:water)” value in data set [2] (setting [14]) is 0.33.

On to `CCC[C@H](N[C@@H](C)C(=O)N1[C@H](C(=O)O)C[C@@H]2CCCC[C@@H]21)C(=O)O` [Perindoprilat], for which the “P(octanol:water)” value in data set [2] (setting [13]) is on record as 0.44.

`C[C@H](N[C@@H](CCc1ccccc1)C(=O)O)C(=O)N1Cc2ccccc2C[C@H]1C(=O)O` [Quinaprilat]: the “P(octanol:water)” value in data set [2] (pH 7.4) is on record as 6.6.

As for `C[C@H](N[C@@H](CCc1ccccc1)C(=O)O)C(=O)N1[C@H](C(=O)O)C[C@@H]2CCC[C@@H]21` [Ramiprilat], in data set [3], the IC50 – broadly, the concentration at which inhibition is half-maximal – is 0.67 nM. Also, the “P(octanol:water)” value in data set [2] (setting [13]) is 2.6; in [2] (setting [14]) it was 0.011.

Regarding `C[C@H](N[C@@H](CCc1ccccc1)C(=O)O)C(=O)N1[C@H](C(=O)O)C[C@H]2CCCC[C@@H]21` [Trandolaprilat], in [2] (setting [13]), the “P(octanol:water)” value is 10.47.

Turning to `C[C@H](CS)C(=O)N1C[C@@H](Sc2ccccc2)C[C@H]1C(=O)O` [Zofenoprilat], the “P(octanol:water)” value in data set [2] (setting [14]) is given as 0.22.

For the compound `CCOC(=O)[C@H](CCc1ccccc1)N[C@@H](C)C(=O)N1CCC[C@H]1C(=O)O` [enalapril], in [4], the off time was 4 h. Also, the clinical outcome in data set [5] is reported as “remained in coma”. The “inhibition of serum ACE activity” value in [6] was “about 50%”.

Consider `CCCCc1nc(Cl)c(CO)n1Cc1ccc(-c2ccccc2-c2nn[nH]n2)cc1` [losartan], for which the right leg paralysis result in [5] (setting [15]) is on record as “no change”. For the same compound, the “time until paresthesias and weakness in left leg stopped” value in data set [5] (setting [15]) lay within 1 to 2 days. Moreover, the “time to full recovery” value in [5] (patient 3, losartan 50 mg twice in first 24 hr, usual olmesartan 20 mg daily resumed thereafter) was ≤ 12 h. For the same compound, the “time until meningoencephalitis disappeared” value in [5] (patient 4, losartan 50 mg daily) was ≤ 48 h; in data set [5] (patient 5, losartan 50 mg daily), ≤ 48 h; in data set [5] (patient 6, losartan 50 mg daily) it was ≤ 24 h. Further, the “time until disappearance of residual weakness and fatigue” value in data set [5] (patient 7, one month after meningoencephalitis, losartan 50 mg daily) was ≤ 24 h. In addition, the clinical outcome in data set [5] was “remained in coma”.

As for `CCOC(=O)[C@H](CCc1ccccc1)N[C@@H](C)C(=O)N1Cc2ccccc2C[C@H]1C(=O)O` [quinapril], the survival entry in [7] was “still alive in November, 2003”. In [4], the off time was 24 h. Moreover, the “effectiveness at delaying the progression of chronic renal failure” value in data set [8] is listed as “more effective than ramipril”. For the same compound, the response of psoriasis entry in data set [9] is given as “put the patient's psoriasis into remission; also recorded: responded dramatically”.

`CCOC(=O)[C@H](CCc1ccccc1)N[C@@H](C)C(=O)N1[C@H](C(=O)O)C[C@@H]2CCC[C@@H]21` [ramipril]: in data set [4] (from [28-30]), the off time is 24 h. In addition, in data set [10], the “effectiveness at lowering pulmonary hypertension” value is “more effective at lowering pulmonary hypertension than enlapril”. The “inhibition of serum ACE activity” value in data set [6] (from [20]) is reported as ~100%.

As for `CCCCC(=O)N(Cc1ccc(-c2ccccc2-c2nnn[nH]2)cc1)[C@H](C(=O)O)C(C)C` [valsartan], in data set [11], the “systolic BP on treatment” value stood at 90 mm Hg. For the same compound, the “time until scalp hair loss resumed after stopping the ARB” value in data set [12] (ARB stopped after 1 week, same patient) fell in the range of 3 to 4 days. Further, the “time until hair loss stopped after starting the ARB” value in data set [12] (active alopecia areata, child, 40 mg po qhs, n=1) is ≤ 36 h. Also, in [12] (more chronic form of alopecia areata, n=1), the “time for valsartan to have an effect” value is on record as “more than 5 days”.
